The values that follow come from PMC8427951, “Design, synthesis, and preliminary evaluation of a potential synthetic opioid rescue agent” (Journal of Biomedical Science, 2021).

The nature of data set [1]: Brain biodistribution study after IP dosing. The data set is classed as in vivo, C57BL/6J mice. To be noted: male, C57BL/6J, mouse, 2 mg/kg. On the procedure: (§1) Adult male C57BL/6J mice were purchased from Jackson Laboratories (Bar Harbor, ME). The animals were housed in polyethylene cages and given food and water ad libitum. Animals were administered 29 by intravenous, oral gavage or intraperitoneal (IV, PO or IP injection). Two groups of mice (n = 3/group) were sampled three times each via the saphenous vein. Whole blood samples were collected into heparinized pipet tips, centrifuged at 4300×g for 2 min to isolate plasma and transferred onto dry ice. Plasma samples were stored at − 80 °C until processing. Separately, for brain biodistribution studies, five mice per time-point were administered 29 via the IP route and a single blood sample was collected from each animal via intracardiac puncture prior to perfusing with ice-cold saline for 5 min before removing the brain. All animal procedures were conducted in accordance with The Guide for the Care and Use of Laboratory Animals (National Academic Press, 1996) and approved by the IACUC (Institutional Animal Care and Use Committee) at the University of Kentucky and at the Rockefeller University.
Brains were excised and sectioned at the sagittal plane. Half of the brain from each animal was homogenized (1:1, w/v) with phosphate buffered saline. […] Proteins were precipitated by addition of 80 µL of 0.1% formic acid. Samples were vortex mixed (10 s) and stored at − 20 °C for 20 min prior to centrifugation at 13,000×g for 15 min at 4 °C. The resulting supernatants were collected into amber HPLC vials fitted with 200 µL glass inserts and immediately analyzed for analyte content by LC/MS–MS.
(§2) For the analysis of total amount of 29 in the plasma samples, calibration curve was generated with 29 drug spiked to mouse blank plasma. Calibrators (0.25–1000 ng/mL) were prepared by the addition of 5 µL of appropriate spiking solution into 100 µL blank plasma followed by vortex mixing. Quality control samples (0.75, 25, 500, 850 ng/mL) were prepared from an independent second stock in a similar fashion. For the analysis of 29 in brain tissue samples, calibration curve was generated with 29 drug spiked to blank mouse brain tissue homogenate using a calibration curve (0.5–372 ng/mL) and quality control samples (0.75, 13.3, 25, 266 ng/mL). The limit of quantitation for plasma was 0.4 ng/mL and for brain tissue 1 ng/mL.
(§3) Analyte and internal standard contained in 4 µL sample injections were eluted from a Waters XBridge C18 (3.5µ, 4.6 × 150 mm; oven temp. 40 °C) analytical column with a 0.1% formic acid in water (Mobile Phase-A): 0.1% formic acid in acetonitrile (Mobile Phase-B) gradient. […] The 90% Mobile Phase-B was maintained for 2.5 min before returning to the initial 35% over a 0.1 min linear ramp. […] The total run time was 7.5 min. Positive-mode ESI Turbo V® source and MS gas, temperature and voltage potential settings were based on optimized parameters determined prior to analysis using infusions of 1000 ng/mL drug standards in 50:50 mobile phase mixture mixed with LC effluent for a total 0.6 mL/min flow rate. Flow-dependent parameters were: CUR = 35/ISV = 5500/TEM = 550/GS1 = 65/GS2 = 65/Horizontal probe position = 7/Vertical probe position = 0.5). […] Calibrators, quality control samples and experimental sample sequences consisted of single randomized experimental sample injections flanked by sets of blanks, and calibrators. A calibration curve was constructed by weighted (1/x^2) polynomial regression analysis of analyte concentration to analyte peak area using GraphPad Prism software (Ver 8.4.3).
(§4) All data sets were analyzed using Phoenix WinNonlin (Certara). A 2-compartment mammillary model was simultaneously fitted to all plasma concentrations obtained from intravenous, oral, and intraperitoneal administration of 29. The oral and intraperitoneal bioavailability was also estimated. Parameters were estimated using population modeling with quasi-random parameter estimation method (QRPEM). […]

Data set [2] is described as follows: Pharmacokinetic study, plasma (IV, PO, IP). It is filed as in vivo, C57BL/6J mice. Particulars: for half-life / Tmax / bioavailability / AUC: plasma; for AUC: NCA. On the procedure:
as §1
Experimental plasma samples were thawed at 37 °C for 3 min and vortex mixed. […] Samples were vortex mixed, then treated with 4× volume (60 µL) of 0.1% formic acid in methanol to precipitate proteins. The samples were vortex mixed (5 s) then centrifuged at 13,000×g for 15 min at 4 °C. The resulting supernatants were collected into amber HPLC vials fitted with 200 µL glass inserts and immediately analyzed for analyte content by LC/MS–MS.
as §2, §3, §4

The subject of data set [3] is C57BL/6J mice. In words: Hot plate assay, oxycodone-induced thermal antinociception. The data set is classed as in vivo. For orientation: Thermal pain tests record how soon the animal reacts.
In data set [4] the test system is C57BL/6J mice. In words: Locomotor activity assay, deficits caused by KOR agonist U50,488. The data set is classed as in vivo. On the procedure: These studies (in C57BL/6J mice from the Jackson Laboratory) focused on the effectiveness of 29 in preventing decreases in locomotor activity caused by the KOR agonist U50,488 (10 mg/kg, IP) over 90 min. This dose and duration of monitoring period was based on recently published studies. Mice were placed individually in rectangular transparent plastic cages (19.7 cm width × 41.3 cm length × 20.3 cm height) with bedding identical to that in the home cage. Each cage was in a photocell frame with an array of perpendicular photocell beams (SmartFrame; Kinder Scientific, Poway, CA). Beam breaks caused by the mouse were quantified through a computer interface. Mice were habituated to this apparatus for a 60-min session. Consecutive experiments in the same mice were separated by at least 72 h. Vehicle or 29 was injected 30 min prior to U50,488 (10 mg/kg). Immediately after the U50,488 injection, each mouse was placed in a locomotor activity cage for a 90-min period.
The locomotor activity data were analyzed as beam breaks over 15-min bins. Data were analyzed with 2-way repeated measures or mixed effects ANOVAs, followed by appropriate post-hoc tests (GraphPad Prism software).

The mark [5] stands for this setting: male, C57BL/6J, mouse, IP, 2 mg/kg.
The mark [6] stands for this setting: male, C57BL/6J, mouse, IV, 2 mg/kg.
Setting [7] is: male, C57BL/6J, mouse, PO, 5 mg/kg.

SMILES strings stand for the structures. “Also recorded” adds a separate entry of the source. Like-named read-outs stand apart in the source and are kept apart here.

As for `C=C1CC[C@@]2(OCCC)[C@H]3Cc4ccc(O)c5c4[C@@]2(CCN3CC2CC2)[C@H]1O5` [Compound 29], the half-life in data set [1] (brain, ip, IP dosing, brain, mice, read-out: apparent terminal half-life in the brain) is roughly 80 min; in data set [1] (brain, ip, IP, brain, read-out: Apparent half-life, t½ (converted)) it was 80.4 min; in data set [1] (plasma, ip, IP dosing, plasma, read-out: apparent terminal half-life in plasma) it was 55 min; in data set [2] (male, C57BL/6J, mouse, intraperitoneal, 2 mg/kg, mice, read-out: plasma half-life (converted)), 54 min; in data set [2] (male, C57BL/6J, mouse, intravenous, oral, intraperitoneal, mice, read-out: plasma half-life (converted)), 36 to 60 min; in data set [2] (male, C57BL/6J, mouse, IP, 2 mg/kg, read-out: Apparent half-life, t½ (converted)), 56.4 min. For the same compound, the half-life was 34.8 min in data set [2] (male, C57BL/6J, mouse, IV, 2 mg/kg, read-out: Apparent half-life, t½ (converted)) and 59.4 min in data set [2] (male, C57BL/6J, mouse, PO, 5 mg/kg, read-out: Apparent half-life, t½ (converted)). Besides, the Tmax in data set [1] (brain, ip, IP dosing, brain, read-out: Tmax in brain (converted)) is roughly 20 min; in data set [1] (brain, ip, IP, brain, read-out: Tmax), 19.2 min; in data set [2] (male, C57BL/6J, mouse, intraperitoneal, PO and IP administration), no more than 10 min; in data set [2] (setting [5]), 7.2 min; in data set [2] (setting [6]), 4.8 min; in data set [2] (setting [7]) it was 6 min. Also, in data set [1] (brain, ip, read-out: partition coefficient, Kp,brain), the Kp was found to be 1.6. Moreover, the AUC in data set [1] (IP, brain, NCA) stood at 0.634 µM·h; in data set [2] (setting [5]) it was 0.397 µM·h; in data set [2] (setting [6]), 0.207 µM·h; in data set [2] (setting [7]), 0.064 µM·h. Further, in data set [2] (2-compartment model), the CL2 worked out at 174 mL/min/kg. The same compound came in with a V2 in data set [2] (2-compartment model) of 6.07 L/kg. The V in data set [2] (2-compartment model fitted to IV, PO and IP plasma concentrations) was determined as 5.36 L/kg. The “FIP (bioavailability following IP administration)” value in data set [2] (2-compartment model, IP 2 mg/kg, 2 mg/kg) came to 99.5%. Besides, in data set [2] (2-compartment model, intraperitoneal absorption), the “Ka,ip” value came to 7.53 h⁻¹. Moreover, in data set [2] (2-compartment model, oral absorption), the “Ka,po” value is 7.91 h⁻¹. In data set [2] (IP dosing), the “time of measurable plasma concentrations” value is “at least 6 h”. For the same compound, in data set [2] (following IV and PO dosing), the “time plasma concentrations were above the lower quantitation limit” value came to 2 h. Besides, in data set [2] (male, C57BL/6J, mouse, intraperitoneal, 2-compartment model fitted to IV, PO and IP plasma concentrations), the clearance was 202 mL/min/kg. The bioavailability in data set [2] (male, C57BL/6J, mouse, ip, 2 mg/kg, 2-compartment model, IP 2 mg/kg, read-out: FIP (bioavailability following IP administration)) is roughly 100%; in data set [2] (male, C57BL/6J, mouse, po, 5 mg/kg, 2-compartment model, PO 5 mg/kg, read-out: Fpo (oral bioavailability)), roughly 6.6%. Besides, in data set [3] (0.1 mg/kg IP), the “duration of MOR antagonist action (lower bound)” value is given as “at least 240 min”. The “duration of action (upper bound)” value in data set [3] (0.1 mg/kg IP) is reported as “less than 24 h”. In addition, the “prevention of oxycodone-induced antinociception” value in data set [3] (29 0.1 mg/kg IP, 30 min before oxycodone 5.6 mg/kg IP) was “fully effective; also recorded: complete prevention”. The “prevention of peak antinociceptive effects of oxycodone (time course)” value in data set [3] (29 0.1 mg/kg IP, pretreatment 15, 30, 120 and 240 min before oxycodone 5.6 mg/kg, measured 15 min after oxycodone) is listed as “significantly prevent”. Also, the “prevention of oxycodone-induced antinociception (dose-dependence)” value in data set [3] (29 0.01–0.1 mg/kg IP, 30 min before oxycodone 5.6 mg/kg IP) was “dose-dependently; also recorded: dose-dependent prevention”. In addition, the “onset of antagonist action” value in data set [3] (after IP injection, 0.1 mg/kg) is reported as no more than 15 min. In data set [4] (29 0.1 mg/kg IP, 30 min before U50,488 10 mg/kg), the “blockade of locomotor effects of U50,488” value is recorded as “ineffective; also recorded: did not cause any apparent blockade”. Moreover, the “blockade of locomotor depressant effects of U50,488” value in data set [4] (29 1 mg/kg IP, 30 min before U50,488 10 mg/kg) was “did block the locomotor depressant effects; also recorded: able to prevent locomotor deficits”. Also, the “effect on locomotor activity alone” value in data set [4] (29 1 mg/kg alone, compared to a vehicle injection) is on record as “did not cause significant effects on locomotor activity”.
On to `COc1ccc2c3c1O[C@H]1C(=O)CC[C@@]4(O)[C@@H](C2)N(C)CC[C@]314` [Oxycodone, oxycodone, reference compound], for which, in data set [3] (oxycodone 5.6 mg/kg IP), the “time of peak effects after injection” value came out at 15 min. For the same compound, in data set [3] (oxycodone 5.6 mg/kg IP, 30 min after vehicle pretreatment), the antinociceptive effect entry was “near-maximal antinociceptive effect”.

Usually half-life stands for how long it takes for the measured level to halve. Usually Tmax stands for the time from dosing to the highest level. One may read the AUC as the area under the concentration-time curve, a measure of exposure. Low readings indicate low exposure, high ones high exposure.
